# Laboratory results as given in patent US20250250227A1, “AMINO LIPID COMPOUND, PREPARATION METHOD THEREFOR, COMPOSITION THEREOF AND USE THEREOF” (SHENZHEN SHENXIN BIOTECHNOLOGY CO., LTD., priority 2022, published 2025).
# Experiments:
# [1] = tested on: Female BALB/c mice; test: Humoral immunity test for total binding IgG antibody (ELISA, SARS-COV-2 antigen protein) in serum of immunized mice; format: in vivo; details: IN002.5.1 mRNA LNP, 50 μL IM, serum on 14th day after immunization; FIG. 5-6
# [2] = Preparation and characterisation of mRNA-encapsulating lipid nanoparticle (encapsulation efficiency, particle size); format: physicochemical; details: LNP encapsulating Fluc mRNA; Lipid:DSPC:CHO-HP:M-DMG-2000 48:10:40.5:1.5
# In short: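 Fluc mRNA in sodium acetate buffer mixed with ethanolic amino lipid:DSPC:CHO-HP:M-DMG-2000 (48:10:40.5:1.5 molar) by microfluidics, mRNA:lipid mass ratio 1:10, then dialysed 2 h against Tris-8% sucrose and 0.22 μm filtered. Final mRNA 0.2 g/L; particle size and encapsulation efficiency measured.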
# [3] = tested on: Female BALB/c mice; test: In vivo safety of hEPO mRNA lipid nanoparticle: serum alanine aminotransferase (ALT) enzyme activity; details: hEPO mRNA LNP, 300 μL IV, serum 12 h after injection; FIG. 1
# Procedure: A human erythropoietin mRNA (hEPO mRNA)-encapsulating lipid nanoparticle formulation was prepared according to the method as described in Experimental Example 1, with replacing the luciferase mRNA (Fluc mRNA) with human erythropoietin mRNA (hEPO mRNA), with a concentration of hEPO mRNA of 0.2 g/L, a mass ratio of hEPO mRNA to Lipid of 1:10, a particle size of 90-130 nm, and an encapsulation efficiency of above 90% or higher.
# (§1) Animal preparation: Female BALB/c mice of 6-8 weeks old were selected and raised in an SPF grade breeding room. Animal testing was conducted in strict accordance with the guidelines of national health institutions and animal ethics requirements.
# In vivo Delivery: Prior to injection of the test LNP formulations, the LNP formulations were gently and repeatedly inverted to thoroughly mix the formulation samples. A corresponding amount of the formulation samples were aspirated with a 1 ml insulin syringe, and the LNP formulations were injected by tail vein injection (IV), with 5 mice per formulation. Each mouse was injected with 300 μL of the human erythropoietin mRNA (hEPO mRNA)-encapsulating lipid nanoparticle formulation.
# Serum acquisition: Blood samples of mice were collected 12 h after injection, placed in tubes without anticoagulants, and naturally coagulated at room temperature for 30-60 min, and then centrifuged at a speed of 3500 rpm for 10 min to obtain the supernatant, which was the serum.
# The detection of alanine transaminase was carried out according to instructions of the kit (Nanjing Jiancheng Bioengineering Institute, Catalog. No. C009-2-1), and a standard curve was made using the standard provided in the kit. D-PBS was used in the experiment, which was purchased from Sangon Biotech (Shanghai) Co., Ltd., Catalog No. E607009-0600.
# The method of detection of enzyme activity of alanine aminotransferase (ALT) in serum of the mice is as follows:
# • (1) Enzymatic reaction: 0, 2, 4, 6, 8 and 10 μL of […] sodium pyruvate standard solution were sequentially added to 5 μL of 0.1 mol/L phosphate buffer, and the volume was supplemented to 25 μL with a matrix solution, and repeatedly aspirating and spitting with a pipette for mixing well; • (2) Addition reaction: 20 μL 2,4-dinitrophenylhydrazine solution was added to all reaction wells in (1), mixed by aspirating and spitting, and then placed in an incubator at 37° C. to react for 20 min; • (3) Developing: 200 μL of 0.4 mol/L NaOH solution was added to all reaction wells in (2) to stop the reaction, mixed by aspirating and spitting, and incubated at room temperature for 15 min. The OD value of each well was measured at 510 nm in a microplate reader; and • (4) Data processing of standard curve: The corresponding absolute OD value for each well was obtained by subtracting the OD value for 0 μL well from the measured OD value for each well, the corresponding ALT Karmen units being 0, 28, 57, 97, 150 and 200 U/L, respectively. The standard curve was obtain by taking the absolute OD value as the abscissa and the corresponding Karmen unit as the ordinate.
# • (1) Reagent preparation: an ALT matrix solution was placed in an incubator at 37° C. for preheating; • (2) Enzymatic reaction: 5 μL diluted serum was aspirated and added to a 96-well plate, then 20 μL matrix solution was added to the corresponding sample well and mixed by repeatedly aspirating and spitting to avoid bubbling, and then placed in an incubator at 37° C. for 30 min; • (3) Addition reaction: 20 μL 2,4-dinitrophenylhydrazine was added to all reaction wells in (2), mixed by aspirating and spitting, and then reacted in an incubator at 37° C. for 20 min; • (4) Developing: 200 μL of 0.4 mol/L NaOH solution was added to all reaction wells in (3) to stop the reaction, mixed by aspirating and spitting, and then incubated at room temperature for 15 min. […]
# [4] = tested on: Female BALB/c mice; test: Performance evaluation of in vivo delivery of Fluc mRNA lipid nanoparticle (IVIS, body and organs); details: Fluc mRNA LNP; for Liver (fluorescence expression intensity) / Spleen (fluorescence expression intensity): 75 μL IV; for Liver (fluorescence expression intensity) / Spleen (fluorescence expression intensity) / Total flux (fluorescence expression intensity) / (Spleen/Total Flux) * 100%: 6 hours after injection; for Liver (fluorescence expression intensity) / Spleen (fluorescence expression intensity) / Total flux (fluorescence expression intensity): IVIS; for Total flux (fluorescence expression intensity): 75 μL tail vein injection (IV); for (Spleen/Total Flux) * 100% / Multiple of spleen delivery/total delivery to amino lipid compound 118: IV; for Multiple of spleen delivery/total delivery to amino lipid compound 118: relative to amino lipid compound 118
# In short: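 Female BALB/c mice, 6-8 weeks, received 75 μL Fluc mRNA-LNP by tail-vein injection, 3 mice per formulation. At 6 h, 200 μL D-luciferin was injected, mice were anesthetized with isoflurane, and IVIS bioluminescence was imaged in body and organs.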
# [5] = tested on: Female BALB/c mice; test: Performance evaluation of delivery to lymph nodes of Fluc mRNA lipid nanoparticle (IVIS); format: in vivo; details: Fluc mRNA LNP; for Expression intensity (lymph nodes): 75 μL IV, 6 hours after injection, IVIS
# Procedure: as §1
# In vivo Delivery: prior to injection of the test LNP formulations, the LNP formulations were gently and repeatedly inverted to thoroughly mix the formulation samples. A corresponding amount of the formulation samples were aspirated with a 1 ml insulin syringe, and the LNP formulations were injected by tail vein injection (IV), with 3 mice per formulation. Each mouse was injected with 75 μL the luciferase mRNA (Fluc mRNA)-encapsulating lipid nanoparticle formulation prepared in Experimental Example 1.
# 6 hours after injection of LNP formulations, mice were injected with 200 μL D-Luciferin luciferase developing substrate (Catalog No. 122799; Manufacturer: Perkin Elmer). After the substrate was injected, the mice were anesthetized with isoflurane inhalation, and the injection time of luciferase developing substrate was recorded.
# The intensity of fluorescence expression induced by the lipid nanoparticle encapsulating luciferase mRNA (Fluc mRNA) with a representative amino lipid compound is shown in Table 6, with SM-102 as a control.
# [6] = tested on: Female BALB/c mice; test: IFN-γ Elispot cellular immunity test, spleen lymphocytes of mice immunized with IN002.5.1 mRNA LNP; format: in vivo; details: 50 μL IM, spleen on 7th day after immunization, FIG. 2-4
# Procedure: An IN002.5.1 mRNA-encapsulating lipid nanoparticle formulation was prepared according to the method as described in Experimental Example 1, with replacing the luciferase mRNA (Fluc mRNA) with IN002.5.1 mRNA, with a concentration of IN002.5.1 mRNA of 0.2 g/L, a mass ratio of IN002.5.1 mRNA to Lipid of 1:10, a particle size of 80-130 nm, and an encapsulation efficiency of 90% or higher.
# The sequence of IN002.5.1 mRNA is one obtained by replacing all uracil (u) in SEQ ID NO. 1 with N1-methylpseudouridine. Of note is that the t (thymine) in the RNA sequence, SEQ ID NO. 1, in the Sequence Listing is actually u (uracil), according to the WIPO Standard ST. 26 for nucleotide or amino acid sequence listing.
# as §1
# Immunization of mice: Prior to injection of the test LNP formulations, the LNP formulations were gently and repeatedly inverted to thoroughly mix the formulation samples. A corresponding amount of the formulation samples were aspirated with a 1 ml insulin syringe, and the LNP formulations were injected by intramuscular injection (IM) […], with 8 mice per formulation. Each mouse was injected with 50 μL of the IN002.5.1 mRNA encapsulating lipid nanoparticle formulation.
# Spleen acquisition: On the 7th day after immunization, 3 to 4 mice from each LNP immunization group were selected and euthanized, and their spleens were acquired in a super clean bench.
# Isolation of lymphocytes: The spleens of mice were taken out in a super clean bench. 7 mL of mouse lymphocyte separation solution was added to a 6-well cell culture plate. Mouse spleen cells were ground with a syringe piston, and the suspension of the spleen cells was filtered through a cell screen and immediately transferred to a 15 mL centrifuge tube. […] RPMI 1640 medium was slowly added with keeping the liquid interface distinct. After centrifugation at 800 g with a horizontal rotor at room temperature for 30 minutes, a clear stratification can be visible. The lymphocyte layer was aspirated, then added with 10 mL RPMI 1640 medium, and inverted for washing. The cells were collected by centrifugation at 250 g for 10 min at room temperature, and the red blood cells were lysed. After completing lysis of red blood cells, the supernatant was poured, and the cells were resuspended in culture medium and counted.
# Addition of stimulant and culture of lymphocyte: RPMI-1640 medium containing 10% fetal bovine serum was used to activate the pre-coated plate. After standing at room temperature for at least 30 min, the medium was removed, and a cell suspension at adjusted concentration was added ([…]). The medium used to resuspend the cells was used as a background negative control. 10 μL positive stimulant working solution (PMA+Ionomycin (dissolved in DPBS) was added to a positive control well; […] medium used to resuspend the cells was added to a negative control well; 10 µL/well of a peptide library diluted with RPMI 1640 was added to experimental wells. After all samples and the stimulant were added, the plate was covered, incubated in an incubator with 5% CO2 at 37° C. for 16-24 h.
# Elispot detection after culture: The cells and the culture medium in the wells were dumped, and the wells were lysed with 200 μL/well of ice-cold deionized water at 4° C. for 10 min. The liquid in the wells were shaken out, and the wells were washed five times with PBS buffer. The wells were incubated with 100 μL/well of 1 μg/ml detection antibody for 2 h at room temperature; and after washing the plate 5 times with PBS, the wells were incubated with 100 μL/well of 1000-fold diluted enzyme labeled avidin (Streptavidin-HRP) for 1 h at room temperature. […]
SMILES,Humoral immunity effect (IgG titer) compared to ALC0315 [1],Encapsulation efficiency [2],ALT enzyme activity (Karmen unit) compared to ALC0315 and SM-102 [3],Liver (fluorescence expression intensity) [4],Spleen (fluorescence expression intensity) [4],Total flux (fluorescence expression intensity) [4],(Spleen/Total Flux) * 100% [4],Multiple of spleen delivery/total delivery to amino lipid compound 118 [4],Expression intensity (lymph nodes) [5],"Delivery effect on lymph nodes compared to SM102 ([5]; IV, statement on Table 6)",Cellular immunity effect (IFN-γ Elispot) compared to ALC0315 [6]
CCCCCCOC(=O)CCN(CCCN(C)C)C(=O)OC(CCCCCCCCC(=O)OC(CCCCCC)CCCCCC)CCCCCCCCC(=O)OC(CCCCCC)CCCCCC [Compound 266],better humoral immunity effect,94.26%,significantly lower ALT enzyme activity,8.09E+07,1.60E+06,2.67E+08,0.60%,1.76,–,–,–
"CCCCCCCCCCCOC(=O)CCCCCN(CCO)CCCCCCCC(=O)OC(CCCCCCCC)CCCCCCCC [SM-102, reference compound]",–,–,–,–,–,–,–,–,4.94E+05,–,–
CCCCCCC(CCCCCC)OC(=O)CCCCCCCCC(CCCCCCCCC(=O)OC(CCCCCC)CCCCCC)OC(=O)N(CCCCCC(=O)OCC)CCCN(C)C [Compound 250],–,–,–,–,–,–,–,–,1.77E+06,better delivery effect on lymph nodes,–
CCCCCCC(CCCCCC)OC(=O)CCCCCCCCC(CCCCCCCCC(=O)OC(CCCCCC)CCCCCC)OC(=O)N(CCCN(C)C)CC(=O)OCCCCC [Compound 271],better humoral immunity effect,93.59%,–,7.57E+07,4.76E+06,2.68E+08,1.78%,5.22,–,–,better cellular immunity effect
CCCCCCCCOC(=O)CN(CCCN(C)C)C(=O)OC(CCCCCCCCC(=O)OC(CCCCCC)CCCCCC)CCCCCCCCC(=O)OC(CCCCCC)CCCCCC [Compound 274],better humoral immunity effect,93.06%,–,7.08E+07,2.60E+06,3.25E+08,0.80%,2.35,–,–,better cellular immunity effect
CCCCCCC(CCCCCC)OC(=O)CCCCCCCCC(CCCCCCCCC(=O)OC(CCCCCC)CCCCCC)OC(=O)N(CCCN(C)C)CCC(=O)OCCCCC [Compound 265],better humoral immunity effect,94.59%,–,7.57E+07,1.91E+06,3.93E+08,0.49%,1.43,–,–,better cellular immunity effect
CCCCCCC(CCCCCC)OC(=O)CCCCCCCCC(CCCCCCCCC(=O)OC(CCCCCC)CCCCCC)OC(=O)N(CCCN(C)C)CCC(=O)OCCC [Compound 263],better humoral immunity effect,–,significantly lower ALT enzyme activity,–,–,–,–,–,–,–,better cellular immunity effect
